≈ marks a conversion by molar mass, not a printed value.
Assays:
[1] = test system: Escherichia coli; test: Antibacterial activity against TolC deficient Escherichia coli by broth microdilution method; assay type: functional
[2] = Inhibition of Escherichia coli N-terminal His6-tagged DNA gyrase subunit GyrA/GyrB supercoiling activity expressed in Escherichia coli BL21 (DE3) using relaxed pBR322 DNA as substrate after 1 hr by agarose gel electrophoresis
[3] = test system: Moraxella catarrhalis; test: Antibacterial activity against Moraxella catarrhalis A-894 by broth microdilution method; assay type: functional
[4] = test system: Streptococcus pneumoniae; test: Antibacterial activity against Streptococcus pneumoniae ATCC 49619 by broth microdilution method; assay type: functional
[5] = test system: Enterococcus faecium; test: Antibacterial activity against vancomycin/fluoroquinolone-resistant Enterococcus faecium A-949 harboring topoisomerase gyrA E88K mutant/parC S80R mutant by broth microdilution method; assay type: functional
[6] = Inhibition of Haemophilus influenzae DNA topoisomerase 4 subunit ParC/ParE relaxation expressed in Escherichia coli BL21 (DE3) using supercoiled pBR322 DNA as substrate after 1 hr mins by agarose gel electrophoresis
[7] = target: DNA topoisomerase 2-alpha (Homo sapiens, UniProt P11388); test: Inhibition of human DNA topoisomerase 2-alpha
[8] = test system: Staphylococcus aureus; test: Antibacterial activity against methicillin-sensitive Staphylococcus aureus A-1178 infected in neutropenic mouse assessed as change in bacterial burden in thighs at 30 mg/kg, po administered every 2.75 hrs for 2 times measured 6.5 hrs post infection; assay type: functional
[9] = Inhibition of Staphylococcus aureus topoisomerase 4 subunit ParC/ParE relaxation expressed in Escherichia coli BL21 (DE3) using supercoiled pBR322 DNA as substrate after 1 hr by agarose gel electrophoresis
[10] = test system: Staphylococcus aureus; test: Antibacterial activity against methicillin/fluoroquinolone-resistant Staphylococcus aureus A-798 harboring topoisomerase gyrA S84L mutant/grlA S80F/Glu84V mutant by broth microdilution method; assay type: functional
[11] = test system: Escherichia coli; test: Antibacterial activity against Escherichia coli ATCC 25922 by broth microdilution method; assay type: functional
[12] = Inhibition of Streptococcus pneumoniae DNA topoisomerase 4 subunit ParC/ParE relaxation expressed in Escherichia coli BL21 (DE3) using supercoiled pBR322 DNA as substrate after 1 hr mins by agarose gel electrophoresis
[13] = target: DNA gyrase (Staphylococcus aureus, UniProt P0A0K8+P20831)
[14] = Inhibition of Haemophilus influenzae DNA gyrase subunit GyrA/GyrB supercoiling activity expressed in Escherichia coli BL21 (DE3) using relaxed pBR322 DNA as substrate after 1 hr mins by agarose gel electrophoresis
[15] = test system: Escherichia coli; test: Selectivity ratio of IC50 for Escherichia coli DNA topoisomerase 4 subunit ParC/ParE relaxation to IC50 for Escherichia coli N-terminal His6-tagged DNA gyrase subunit GyrA/GyrB supercoiling activity
[16] = test system: Staphylococcus aureus; test: Antibacterial activity against Staphylococcus aureus ATCC 29213 by broth microdilution method; assay type: functional
[17] = Inhibition of fluoroquinolone-resistant Staphylococcus aureus clinical isolate DNA gyrase subunit GyrB/GyrA S84L mutant supercoiling activity using relaxed pBR322 DNA as substrate after 1 hr by agarose gel electrophoresis
[18] = Inhibition of Streptococcus pneumoniae DNA gyrase subunit GyrA/GyrB supercoiling activity expressed in Escherichia coli BL21 (DE3) using relaxed pBR322 DNA as substrate after 1 hr mins by agarose gel electrophoresis
[19] = test system: Enterococcus faecalis; test: Antibacterial activity against Enterococcus faecalis ATCC 29212 by broth microdilution method; assay type: functional
[20] = test system: Streptococcus pneumoniae; test: Antibacterial activity against fluoroquinolone-resistant Streptococcus pneumoniae A-70 harboring topoisomerase gyrA S81F mutant/parc S79F mutant/parE I440V mutant by broth microdilution method; assay type: functional
[21] = Inhibition of Escherichia coli DNA topoisomerase 4 subunit ParC/ParE relaxation expressed in Escherichia coli BL21 (DE3) using supercoiled pBR322 DNA as substrate after 1 hr by agarose gel electrophoresis
[22] = test system: Staphylococcus aureus; test: Selectivity ratio of IC50 for Staphylococcus aureus topoisomerase 4 subunit ParC/ParE relaxation to IC50 for Staphylococcus aureus N-terminal His6-tagged DNA gyrase subunit GyrA/GyrB supercoiling activity
[23] = test system: Haemophilus influenzae; test: Antibacterial activity against Haemophilus influenzae A-921 by broth microdilution method; assay type: functional
[24] = test system: Streptococcus pyogenes; test: Antibacterial activity against Streptococcus pyogenes ATCC 19615 by broth microdilution method; assay type: functional
[25] = AUC in mouse at 100 mg/kg, po after 24 hrs by LC-MS/MS analysis; assay type: ADME, organism-based; design: time < 24 hr, dose 100 mg/kg, route oral; settings: in vivo
[26] = Protein binding to mouse plasma by rapid equilibrium dialysis method; assay type: ADME, cell-free; settings: read-out: PPB (converted)
[27] = Octanol-phosphate buffer partition coefficient, logD of compound at pH 7.4 by LC/UV analysis; assay type: physicochemical
[28] = test system: Mus musculus; test: Unbound AUC in mouse at 100 mg/kg, po after 24 hrs by LC-MS/MS analysis; assay type: ADME, organism-based; settings: in vivo
[29] = target: hERG (KCNH2) (Homo sapiens, UniProt Q12809); test: Inhibition of human ERG expressed in CHO cells at 10 uM after 3 mins at -80 mV holding potential by Qpatch assay; assay type: cell-based; settings: CHO cells expressing human ERG
[30] = test system: Staphylococcus aureus; test: Antibacterial activity against methicillin-sensitive Staphylococcus aureus A-1178 by broth microdilution method; assay type: functional
[31] = AUC in mouse at 30 mg/kg, po after 24 hrs by LC-MS/MS analysis; assay type: ADME, organism-based; design: time < 24 hr, dose 30 mg/kg, route oral; settings: in vivo
[32] = test system: Mus musculus; test: Unbound AUC in mouse at 30 mg/kg, po after 24 hrs by LC-MS/MS analysis; assay type: ADME, organism-based; settings: in vivo
[33] = Inhibition of Escherichia coli DNA gyrase subunit GyrA/GyrB R136H mutant supercoiling activity expressed in Escherichia coli BL21 (DE3) using relaxed pBR322 DNA as substrate after 1 hr mins by agarose gel electrophoresis

Row | SMILES | MIC [1] | IC50 [2] | MIC [3] | MIC [4] | MIC [5] | IC50 [6] | IC50 [7] | Activity [8] | IC50 [9] | MIC [10] | MIC [11] | IC50 [12] | IC50 [13] | IC50 [14] | MIC [16] | MIC [19] | MIC [20] | IC50 [21] | MIC [23] | MIC [24] | further results
1 | CCNC(=O)Nc1cc2c(-c3ccnc(C)c3)ccc(Nc3ccc(C)nc3)c2cn1 | 0.5 µg/mL (≈ 1.21 µM) | 30 nM | 0.25 µg/mL (≈ 0.606 µM) | 0.125 µg/mL (≈ 0.303 µM) | 0.06 µg/mL (≈ 0.145 µM) | 125 nM | > 256000 nM | -0.2 deltalog10CFU | 125 nM | ≤ 0.03 µg/mL | > 16 µg/mL | 30 nM | 8 nM | 30 nM | ≤ 0.03 µg/mL | ≤ 0.03 µg/mL | 0.125 µg/mL (≈ 0.303 µM) | 2000 nM | 0.25 µg/mL (≈ 0.606 µM) | 0.125 µg/mL (≈ 0.303 µM) | Ratio IC50 [15]: 60; IC50 [17]: < 4 nM; IC50 [18]: 125 nM; Ratio IC50 [22]: 16
2 | CCNC(=O)Nc1cc2c(-c3ccnc(C)c3)ccc(CNC(=O)OCCOC)c2cn1 |  |  |  |  |  |  |  | -1.3 deltalog10CFU | 2000 nM |  |  |  | 8 nM |  | 0.125 µg/mL (≈ 0.286 µM) |  |  |  |  |  | AUC at 24 h [25]: 14000 ng·h/mL; fraction unbound [26]: 0.045; logD [27]: 3; fAUC [28]: 630 ng·h/mL; inhibition at 0.05 h, 10 µM [29]: 20%; MIC [30]: 0.125 µg/mL (≈ 0.286 µM)
3 | CCNC(=O)Nc1cc2c(-c3ccnc(C)c3)ccc(CNC(C)=O)c2cn1 |  |  |  |  |  |  |  | 0 deltalog10CFU | 2000 nM |  |  |  | 8 nM |  | 0.5 µg/mL (≈ 1.32 µM) |  |  |  |  |  | AUC at 24 h [31]: 120 ng·h/mL; fraction unbound [26]: 0.123; fAUC [32]: 15 ng·h/mL; logD [27]: 2.6; inhibition at 0.05 h, 10 µM [29]: 4%; MIC [30]: 0.5 µg/mL (≈ 1.32 µM)
4 | O=C(O)c1cn(C2CC2)c2cc(N3CCNCC3)c(F)cc2c1=O [CIPROFLOXACIN] | ≤ 0.03 µg/mL | 500 nM | 0.03 µg/mL (≈ 0.0905 µM) | 1 µg/mL (≈ 3.02 µM) | > 16 µg/mL | 2000 nM |  |  | 8000 nM | > 16 µg/mL | ≤ 0.03 µg/mL | 32000 nM |  | 8000 nM | 0.25 µg/mL (≈ 0.754 µM) | 1 µg/mL (≈ 3.02 µM) | > 16 µg/mL | 8000 nM | ≤ 0.03 µg/mL | 0.25 µg/mL (≈ 0.754 µM) | IC50 [33]: 8000 nM
5 | C#CCOC(=O)NCc1ccc(-c2ccnc(C)c2)c2cc(NC(=O)NCC)ncc12 | 0.5 µg/mL (≈ 1.2 µM) | 30 nM | 0.25 µg/mL (≈ 0.599 µM) | 0.5 µg/mL (≈ 1.2 µM) | 1 µg/mL (≈ 2.4 µM) | 2000 nM | > 256000 nM | -3.9 deltalog10CFU | 2000 nM | ≤ 0.03 µg/mL | > 16 µg/mL | 125 nM | 8 nM | 30 nM | ≤ 0.03 µg/mL | 0.25 µg/mL (≈ 0.599 µM) | 0.5 µg/mL (≈ 1.2 µM) | 8000 nM | 1 µg/mL (≈ 2.4 µM) | 0.25 µg/mL (≈ 0.599 µM) | IC50 [33]: 30 nM; IC50 [17]: < 4 nM; IC50 [18]: 2000 nM

Reference: ChEMBL document CHEMBL4049438, “Discovery and Optimization of Isoquinoline Ethyl Ureas as Antibacterial Agents” (J Med Chem, 2017)
